What was measured:
MKNK1 [1] = target: T1, MKNK1 (Homo sapiens, UniProt Q9BUB5, T385D); assay: MKNK1 kinase high ATP assay (TR-FRET-based); type: biochemical; settings: Table 2c; 2 mM ATP, 15 min preincubation
T1 construct: GST (N); purchased Carna Biosciences 02-145; host or cells: insect cells (baculovirus expression system)
Outline: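 GST-tagged full-length human MKNK1 (aa 1-424, T344D) from insect cells, preincubated with compound 15 min at 22 °C. Reaction 30 min at 22 °C with 2 mM ATP and 0.06 μM biotinylated peptide in HEPES pH 7.5, Mg2+, DTT. Phosphopeptide detected by TR-FRET (665/622 ratio) with anti-pS6 (pSer236) antibody; normalised to no-inhibitor and no-enzyme controls.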

MKNK1 [2] = target: T1, MKNK1; assay: MKNK1 kinase assay (MKNK1 TR-FRET assay); type: biochemical; settings: Table 1c; 10 μM ATP, 15 min preincubation

T1 sequence (Q9BUB5 1-424 isoform Q9BUB5-2 T344D): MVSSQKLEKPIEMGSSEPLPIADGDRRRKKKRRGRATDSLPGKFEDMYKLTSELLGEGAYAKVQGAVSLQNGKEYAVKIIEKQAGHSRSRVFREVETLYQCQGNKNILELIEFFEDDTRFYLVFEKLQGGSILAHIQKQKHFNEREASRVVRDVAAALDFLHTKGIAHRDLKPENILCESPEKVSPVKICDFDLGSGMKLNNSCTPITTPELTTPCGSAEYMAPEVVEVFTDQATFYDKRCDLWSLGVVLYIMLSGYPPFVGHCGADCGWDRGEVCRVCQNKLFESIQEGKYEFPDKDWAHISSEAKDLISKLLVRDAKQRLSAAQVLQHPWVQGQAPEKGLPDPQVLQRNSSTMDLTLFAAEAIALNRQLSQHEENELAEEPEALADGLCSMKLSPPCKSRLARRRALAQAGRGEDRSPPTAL

Row | SMILES | IC50 (MKNK1 [1]) [nM] | IC50 (MKNK1 [2]) [nM]
1 | CN(C)[C@@H]1CCN(c2nccc3oc(-c4cnc5ccc(O[C@H]6C[C@H](N)C6)nn45)cc23)C1 [III-98, (3R)-1-(2-{6-[(trans-3-Aminocyclobutyl)oxy]imidazo[1,2-b]pyridazin-3-yl}furo[3,2-c]pyridin-4-yl)-N,N-dimethylpyrrolidin-3-amine] | 3.3 | 1.6
2 | CC(C)(C)N1CCN(c2nccc3oc(-c4cnc5ccc(O[C@H]6C[C@H](N)C6)nn45)cc23)CC1 [III-99, trans-3-({3-[4-(4-tert-butylpiperazin-1-yl)furo[3,2-c]pyridin-2-yl]imidazo[1,2-b]pyridazin-6-yl}oxy)cyclobutanamine] | 45.6 | 24.4
3 | CN1CCC(N(C)c2nccc3oc(-c4cnc5ccc(O[C@H]6C[C@H](N)C6)nn45)cc23)CC1 [III-100, 2-{6-[(trans-3-Aminocyclobutyl)oxy]imidazo[1,2-b]pyridazin-3-yl}-N-methyl-N-(1-methylpiperidin-4-yl)furo[3,2-c]pyridin-4-amine] | 45.8 | 5.7
4 | CCN(CCOC)c1nccc2oc(-c3cnc4ccc(O[C@H]5C[C@H](N)C5)nn34)cc12 [III-101, 2-{6-[(trans-3-Aminocyclobutyl)oxy]imidazo[1,2-b]pyridazin-3-yl}-N-ethyl-N-(2-methoxyethyl)furo[3,2-c]pyridin-4-amine] | 1.2 | 0.8
5 | N[C@H]1C[C@H](Oc2ccc3ncc(-c4cc5c(N6CCC[C@@H]6CO)nccc5o4)n3n2)C1 [III-102, [(2R)-1-(2-{6-[(trans-3-Aminocyclobutyl)oxy]imidazo[1,2-b]pyridazin-3-yl}furo[3,2-c]pyridin-4-yl)pyrrolidin-2-yl]methanol] | 31.2 | 6.8
6 | N[C@H]1C[C@H](Oc2ccc3ncc(-c4cc5c(N6CCNCC6)nccc5o4)n3n2)C1 [III-103, trans-3-({3-[4-(Piperazin-1-yl)furo[3,2-c]pyridin-2-yl]imidazo[1,2-b]pyridazin-6-yl}oxy)cyclobutanamine] | 18.6 | 9.1
7 | C[C@@H]1CN(c2nccc3oc(-c4cnc5ccc(O[C@H]6C[C@H](N)C6)nn45)cc23)C[C@H](C)O1 [III-104, trans-3-[(3-{4-[(2R,6S)-2,6-Dimethylmorpholin-4-yl]furo[3,2-c]pyridin-2-yl}imidazo[1,2-b]pyridazin-6-yl)oxy]cyclobutanamine] | 61.5 | 18.7
8 | CN(CCCO)c1nccc2oc(-c3cnc4ccc(O[C@H]5C[C@H](N)C5)nn34)cc12 [III-105, 3-[(2-{6-[(trans-3-Aminocyclobutyl)oxy]imidazo[1,2-b]pyridazin-3-yl}furo-[3,2-c]pyridin-4-yl)(methyl)amino]propan-1-ol] | 7.3 | 2.1
9 | N[C@H]1C[C@H](Oc2ccc3ncc(-c4cc5c(N6CCN(c7ccccc7)CC6)nccc5o4)n3n2)C1 [III-106, trans-3-({3-[4-(4-Phenylpiperazin-1-yl)furo[3,2-c]pyridin-2-yl]imidazo[1,2-b]pyridazin-6-yl}oxy)cyclobutanamine] | 9.2 | 10.2
10 | C[C@@H]1COCCN1c1nccc2oc(-c3cnc4ccc(O[C@H]5C[C@H](N)C5)nn34)cc12 [III-107, trans-3-[(3-{4-[(3R)-3-Methylmorpholin-4-yl]furo[3,2-c]pyridin-2-yl}imidazo[1,2-b]pyridazin-6-yl)oxy]cyclobutanamine] | 11.8 | 4.8
11 | CCN(CCOC(C)(C)C)c1nccc2oc(-c3cnc4ccc(O[C@H]5C[C@H](N)C5)nn34)cc12 [III-108, 2-{6-[(trans-3-Aminocyclobutyl)oxy]imidazo[1,2-b]pyridazin-3-yl}-N-(2-tert-butoxyethyl)-N-ethylfuro[3,2-c]pyridin-4-amine] | 0.5 | 1.9
12 | CCN(CCOC)c1nccc2oc(-c3cnc4ccc(O[C@H]5Cc6ccccc6[C@@H]5N)nn34)cc12 [III-111, 2-(6-{[(1S,2S)-1-Amino-2,3-dihydro-1H-inden-2-yl]oxy}imidazo[1,2-b]pyridazin-3-yl)-N-ethyl-N-(2-methoxyethyl)furo[3,2-c]pyridin-4-amine] | 42.2 | 3.8

Source: US20160287589A1, “SUBSTITUTED-IMIDAZOPYRIDAZINES” (BAYER PHARMA AKTIENGESELLSCHAFT, priority 2013, published 2016)
